Assay [1] relates to CH58TF infected primary CD4+ T-cells. As to the kind of experiment: Recognition of HIV-1 infected cells by 17b (flow cytometry cell-surface staining). The class given is cell-based. As to conditions: for fold induction at 50 µM: Human immunodeficiency virus 1, T-cell, read-out: Fold Over DMSO (17b, n = 1); for recognition of infected cells by the anti-CoRBS 17b antibody: 50 μM, 5 μg/ml 17b, result in words. The method, boiled down:
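Primary CD4+ T cells infected 48 h with HIV-1 CH58TF, stained with 5 μg/ml 17b plus MCG analogs (50 μM), (+)-BNM-III-170 or DMSO vehicle. Detection by Alexa Fluor 647 anti-human IgG secondary and flow cytometry. Infected cells gated as p24+ living cells.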

Assay [2] shares this test system. As to the kind of experiment: HIV+ patient sera/plasma recognition of CH58TF infected primary CD4+ T-cells (flow cytometry cell-surface staining). As to conditions: for fold induction at 50 µM: Human immunodeficiency virus 1, T-cell, read-out: Fold Over DMSO (patient sera, n = 3); for recognition of infected cells by plasma from 15 HIV-1-infected individuals: 50 μM, 1:1000 diluted HIV+ plasma, result in words. The class given is cell-based, HIV-1. A digest of the protocol: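 Primary CD4+ T cells from PBMC infected with HIV-1 CH58TF for 48 h, then surface-stained with 1:1000 HIV+ plasma or 5 μg/ml 17b plus 50 μM MCG analogs or DMSO; Alexa Fluor 647 anti-human IgG detection by flow cytometry, infected cells gated p24+. Values are fold change over DMSO.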

Assay [3] has as its system primary CD4+ T cells infected with CH58 TF. The experiment in a line: FACS-based ADCC assay with patient sera/plasma. The class given is cell-based, HIV-1. The note with it: for fold induction at 50 µM: Human immunodeficiency virus 1, CD4+ T, read-out: Fold over DMSO (% ADCC with ps, n = 3); for ADCC responses against infected cells: 50 μM, 1/1,000 dilution of plasma from 15 HIV-1-infected individuals, result in words. The procedure:
Measurement of antibody or serum-mediated ADCC is performed with a FACS-based assay as described in Prevost, “Influence of the Envelope gp120 Phe 43 Cavity on HIV-1 Sensitivity to Antibody-Dependent Cell-Mediated Cytotoxicity Responses,” 2017, J. Virol 91; Richard, “CD4 mimetics sensitize HIV-1-infected cells to ADCC,” 2015, Proc. Natl. Acad. Sci. USA, 112:E2687-2694; Richard, “Small CD4 Mimetics Prevent HIV-1 Uninfected Bystander CD4+ T Cell Killing Mediated by Antibody-dependent Cell-mediated Cytotoxicity,” 2016, EBioMedicine 3:122-134; Veillette, “The HIV-1 gp120 CD4-Bound Conformation Is Preferentially Targeted by Antibody-Dependent Cellular Cytotoxicity-Mediating Antibodies in Sera from HIV-1-Infected Individuals,” 2015, J. Virol., 89:545-551; Veillette, “Interaction with cellular CD4 exposes HIV-1 envelope epitopes targeted by antibody-dependent cell-mediated cytotoxicity,” 2014, J. Virol., 88:2633-2644; Richard, “Uninfected Bystander Cells Impact the Measurement of HIV-Specific Antibody-Dependent Cellular Cytotoxicity Responses,” 2018, MBio. 9(2): e00358-18; Richard, “BST-2 Expression Modulates Small CD4-Mimetic Sensitization of HIV-1-Infected Cells to Antibody-Dependent Cellular Cytotoxicity,” 2017, J. Virol. 91(11):e00219-17. This assay specifically measures ADCC activity against productively infected cells and is not affected by the confounding effect of uninfected bystander cells. See, Richard, “Uninfected Bystander Cells Impact the Measurement of HIV-Specific Antibody-Dependent Cellular Cytotoxicity Responses,” 2018, MBio., 9(2): e00358-18.
Briefly, primary CD4+ T cells isolated from healthy HIV-1-negative individuals or CEM-NKr cells are infected with HIV viruses. Forty-eight hours post-infection, cells are incubated with autologous PBMC (effector:target cell ratio of 10:1) in the presence of 1:1000 HIV+ sera dilution or anti-Env Abs (5 μg/mL) alone or in combination with increasing concentration of MCG analogs. Infected cells are identified by intracellular staining for HIV-1 p24 or GFP expression (for GFP expressing infectious molecular clones) and the percentage of cytotoxicity is calculated the following formula as described.
For cells infected with HIV-1 primary isolates, infected cells are identified by intracellular staining for HIV-1 p24. In that context, the percentage of cytotoxicity is calculated with the following formula by gating infected lived target cells: […]
The ADCC susceptibility of primary CD4+ T cells infected with CH58 TF mediated by HIV+ plasma+/−MCG analogs also was evaluated using a FACS-based assay as previously reported. See, Ding, 2016, J Virol., 90:2127-2134; and Richard, 2018, MBio 9.
Briefly, Primary CD4 T cells isolated from PBMC were infected with HIV-1CH58TF for 48 hours. For cell surface staining, 5 μg/ml 17b (FIG. 15A) or 1:1000 diluted HIV+ plasma (n=15) (FIG. 15B) were used in the presence of the different MCG analogs (50 μM), (+)-BNM-III-170 or with an equivalent volume of vehicle (DMSO). An Alexa Fluor 647-conjugated anti-human IgG secondary Ab was then used for fluorescent labeling. For ADCC (FIG. 15C), infected cells were used as target cells in a FACS-based ADCC assay that measures the killing of infected (p24+ cells). See, Madani, 2016, J. Virol., 90:5031-5046. The assay determines susceptibility to ADCC mediated by a 1/1,000 dilution of plasma from 15 HIV-1-infected individuals in the presence of the different MCG analogs (50 μM), (+)-BNM-III-170 (50 μM) or with an equivalent volume of vehicle (DMSO). Correlation between cell-surface staining with HIV+ plasma and ADCC was calculated using the Spearman rank correlation (FIG. 15D).

For the compound `CS(=O)(=O)N1CCC[C@H](C(=O)Nc2cccc(Cl)c2)C1` [(S)-MCG-III-027-B01], the figures for the fold induction at 50 µM in assay [1], in assay [2] and in assay [3] were 1.04, 1.37 and 0.87, respectively.
As to `O=C(Nc1ccc(Cl)c(F)c1)C1CCCOC1` (stereo not drawn) [MCG-III-207], the figures for the fold induction at 50 µM in assay [1], in assay [2] and in assay [3] were 3.69, 1.92 and 1.59, respectively.
Regarding `NCCNC(=O)N1CCC[C@H](C(=O)Nc2ccc(Cl)c(F)c2)C1` [(S)-MCG-IV-210], the “recognition of infected cells by the anti-CoRBS 17b antibody” value in assay [1] was “enhanced the recognition of infected cells”. Besides, the “recognition of infected cells by plasma from 15 HIV-1-infected individuals” value (“recognition of infected cells by plasma” for short) in assay [2] was “enhanced the recognition of infected cells”. The “ADCC responses against infected cells” value in assay [3] is “enhanced ADCC responses”.
Turning to `CS(=O)(=O)N1CCC[C@H](C(=O)Nc2ccc(F)cc2)C1` [(S)-MCG-III-027-A03], the fold induction at 50 µM in assay [1] came out at 1.12; in assay [2], 1.52; in assay [3], 0.969.
For `CS(=O)(=O)N1CCC[C@H](C(=O)Nc2cccc(C(F)(F)F)c2)C1` [(S)-MCG-III-027-B04] the same measures were 1.01, 1.47 and 0.129.
Consider `CCOC(=O)N1CCC[C@H](C(=O)Nc2ccc(Cl)c(F)c2)C1` [(S)-MCG-III-188-A02], for which, in assay [1], the “recognition of infected cells by the anti-CoRBS 17b antibody” value is recorded as “enhanced the recognition of infected cells” and the fold induction at 50 µM was 6.35. For the same compound, in assay [2], the “recognition of infected cells by plasma” value is recorded as “enhanced the recognition of infected cells” and the fold induction at 50 µM was 3.83. Moreover, in assay [3], the “ADCC responses against infected cells” value is recorded as “enhanced ADCC responses” and the fold induction at 50 µM stood at 0.867.
As for `CS(=O)(=O)N1CCC[C@H](C(=O)Nc2ccccc2Cl)C1` [(S)-MCG-III-027-C01], the fold induction at 50 µM stood at 1.14 in assay [1], 1.06 in assay [2] and 0.722 in assay [3].
The matching figures for `CCS(=O)(=O)N1CCC[C@H](C(=O)Nc2ccc(Cl)c(F)c2)C1` [(S)-MCG-III-085-C01]: 5.7, 3.28 and 0.487.
For `CS(=O)(=O)N1CCC[C@H](C(=O)Nc2cccc(F)c2)C1` [(S)-MCG-III-027-B03] the same measures were 1.05, 1.44 and 1.17.
Consider `Cn1cnc(S(=O)(=O)N2CCCC(C(=O)Nc3ccc(Cl)c(F)c3)C2)c1` (stereo not drawn) [MCG-III-157-B04], for which the fold induction at 50 µM was 2.4 in assay [2] and 1.73 in assay [3].
The matching figures for `Cn1cnc(S(=O)(=O)N2CCC[C@H](C(=O)Nc3ccc(Cl)c(F)c3)C2)c1` [(S)-MCG-III-116-A02]: 1.97 and 1.86.
For `COC(=O)N1CCC[C@H](C(=O)Nc2ccc(Cl)c(F)c2)C1` [(S)-MCG-III-188-A01], in assay [1], the “recognition of infected cells by the anti-CoRBS 17b antibody” value is “enhanced the recognition of infected cells” and the fold induction at 50 µM was 7.11. Besides, in assay [2], the “recognition of infected cells by plasma” value is “enhanced the recognition of infected cells” and the fold induction at 50 µM is 2.69. Besides, in assay [3], the “ADCC responses against infected cells” value was “enhanced ADCC responses” and the fold induction at 50 µM worked out at 2.27.
Regarding `CCCNC(=O)N1CCC[C@H](C(=O)Nc2ccc(Cl)c(F)c2)C1` [(S)-MCG-IV-031-A05], the “recognition of infected cells by the anti-CoRBS 17b antibody” value in assay [1] is on record as “enhanced the recognition of infected cells”. For the same compound, in assay [2], the “recognition of infected cells by plasma” value was “enhanced the recognition of infected cells”. In addition, the “ADCC responses against infected cells” value in assay [3] is recorded as “enhanced ADCC responses”.
With `CS(=O)(=O)N1CCC[C@H](C(=O)Nc2ccc(Cl)c(F)c2)C1` [(S)-MCG-III-027-D05], in assay [1], the “recognition of infected cells by the anti-CoRBS 17b antibody” value is on record as “enhanced the recognition of infected cells” and the fold induction at 50 µM worked out at 2.22. Further, in assay [2], the “recognition of infected cells by plasma” value is listed as “enhanced the recognition of infected cells” and the fold induction at 50 µM was 2.83. In addition, in assay [3], the “ADCC responses against infected cells” value is “enhanced ADCC responses” and the fold induction at 50 µM came out at 1.01.
In the case of `CS(=O)(=O)N1CCC[C@H](C(=O)Nc2ccc(Br)cc2)C1` [(S)-MCG-III-027-A02], the fold induction at 50 µM in assay [1] was 1.65; in assay [2], 2.08; in assay [3] it was 0.291.
For `CS(=O)(=O)N1CCC[C@H](C(=O)Nc2cccc(Br)c2)C1` [(S)-MCG-III-027-B02] the same measures were 1.06, 1.62 and 0.74.
For `COc1cccc(NC(=O)[C@H]2CCCN(S(C)(=O)=O)C2)c1` [(S)-MCG-III-027-B05], the results for the fold induction at 50 µM in assay [1], in assay [2] and in assay [3] were 1.03, 1.71 and 0.361, respectively.
The matching figures for `CS(=O)(=O)N1CCC[C@H](C(=O)Nc2ccc(F)cc2F)C1` [(S)-MCG-III-027-D04]: 1.17, 1.24 and 1.37.
With `O=C(Nc1ccc(Cl)c(F)c1)C1CCCN(S(=O)(=O)c2ccccc2)C1` (stereo not drawn) [MCG-III-157-B03], the fold induction at 50 µM is 3.73 in assay [2] and 1.94 in assay [3].

The values are drawn from patent publication US12286401B2, “Small molecules that sensitize HIV-1 infected cells to antibody dependent cellular cytotoxicity” (THE TRUSTEES OF THE UNIVERSITY OF PENNSYLVANIA, priority 2018, dated 2025).
